Test results reported in patent publication US8592456B2 (4SC Discovery GmbH, priority 2011, dated 2013).
pIC50: −log10 of the molar value.

system: PBMC (T cell proliferation); assay: T cell proliferation assay, PHA-stimulated human PBMC (BrdU ELISA); assay type: cell-based; conditions: PHA-stimulated human PBMC, 48 hours, BrdU; column D; activity classes 1-4; read-out: IC50 (Tcell proliferation)
In short: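 BrdU ELISA readout of proliferation at 48 hours. Cells: human PBMC from healthy donors in 10% dialyzed FCS/RPMI1640, 1×10^5 per well, activated by 2 μg/ml phytohaemagglutinin in the presence of compound.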

Compound	pIC50
Fc1cccc(-n2ncc(-c3onc(-c4c(F)cccc4Cl)c3-c3ccccc3)c2C(F)(F)F)c1 [Example I-14, 3-(2-chloro-6-fluorophenyl)-5-(1-(3-fluorophenyl)-5-(trifluoromethyl)-1H-pyrazol-4-yl)-4-phenylisoxazole]	6.00 to 7.00
Cc1nnc(-c2c(-c3c(F)cccc3Cl)noc2-c2cnn(-c3ccncc3)c2C(F)(F)F)s1 [IB-22, 3-(2-chloro-6-fluorophenyl)-4-(5-methyl-1,3,4-thiadiazol-2-yl)-5-(1-(pyridin-4-yl)-S-(trifluoromethyl)-1H-pyrazol-4-yl)isoxazole]	6.00 to 7.00
Fc1cccc(-n2ncc(-c3onc(-c4c(F)cccc4Cl)c3-c3ccsc3)c2C(F)(F)F)c1 [Example I-16, 3-(2-chloro-6-fluorophenyl)-5-(1-(3-fluorophenyl)-5-(trifluoromethyl)-1H-pyrazol-4-yl)-4-(thiophen-3-yl)isoxazole]	> 8.00
Cc1nnc(-c2c(-c3c(F)cccc3Cl)noc2-c2cnn(-c3cccnc3)c2C(F)(F)F)o1 [IB-10, 2-(3-(2-chloro-6-fluorophenyl)-5-(1-(pyridin-3-yl)-5-(trifluoromethyl)-1H-pyrazol-4-yl)isoxazol-4-yl)-5-methyl-1,3,4-oxadiazole]	6.00 to 7.00
Fc1ccccc1-n1ncc(-c2onc(-c3c(F)cccc3Cl)c2-c2cnco2)c1C(F)(F)F [IB-28, 3-(2-chloro-6-fluorophenyl)-5-(1-(2-fluorophenyl)-5-(trifluoromethyl)-1H-pyrazol-4-yl)-4-(oxazol-5-yl)isoxazole]	6.00 to 7.00

same assay, conditions: human PBMC, 2 μg/ml PHA, 48 hours, BrdU; read-out: D: IC50 (Tcell proliferation)

Compound	pIC50
NC(=S)c1c(-c2c(F)cccc2Cl)noc1-c1cnn(-c2cccc(Cl)c2)c1C(F)(F)F [Example 125, 3-(2-chloro-6-fluorophenyl)-5-(1-(3-chlorophenyl)-5-(trifluoromethyl)-1H-pyrazol-4-yl)isoxazole-4-carbothioamide]	5.00 to 6.00
COC(=O)c1c(-c2c(F)cccc2Cl)noc1-c1cnn(-c2cc(C)nc(C)n2)c1C(F)(F)F [Example 119, methyl 3-(2-chloro-6-fluorophenyl)-5-(1-(2,6-dimethylpyrimidin-4-yl)-5-(trifluoromethyl)-1H-pyrazol-4-yl)isoxazole-4-carboxylate]	6.00 to 7.00
O=C(c1c(-c2c(F)cccc2Cl)noc1-c1cnn(-c2ccccc2Cl)c1C(F)(F)F)N1CCCO1 [Example B-49, (3-(2-chloro-6-fluorophenyl)-5-(1-(2-chlorophenyl)-5-(trifluoromethyl)-1H-pyrazol-4-yl)isozazol-4-yl)(isoxazolidin-2-yl)methanone]	5.00 to 6.00
CCOC(=O)c1c(-c2ccncc2F)noc1-c1cnn(-c2cccc(F)c2)c1C(F)(F)F [Example B-14, ethyl 5-(1-(3-fluorophenyl)-5-(trifluoromethyl)-1H-pyrazol-4-yl)-3-(3-fluoropyridin-4-yl)isoxazole-4-carboxylate]	5.00 to 6.00
CCOC(=O)c1c(-c2c(Cl)cncc2Cl)noc1-c1cnn(-c2cccc(NC(C)=O)c2)c1C(F)(F)F [Example B-11, ethyl 5-(1-(3-acetamidophenyl)-5-(trifluoromethyl)-1H-pyrazol-4-yl)-3-(3,5-dichloropyridin-4-yl)isoxazole-4-carboxylate]	6.00 to 7.00
O=C(c1c(-c2c(F)cccc2Cl)noc1-c1cnn(-c2cccc(Cl)c2)c1C(F)(F)F)N1CCOCC1 [Example B-35, (3-(2-chloro-6-fluorophenyl)-5-(1-(3-chlorophenyl)-5-(trifluoromethyl)-1H-pyrazol-4-yl)isoxazol-4-yl)(morpholino)methanone]	5.00 to 6.00
COC(=O)c1c(-c2ccccc2F)noc1-c1cnn(-c2cccc(F)c2)c1C(F)(F)F [Example 92, methyl 3-(2-fluorophenyl)-5-(1-(3-fluorophenyl)-5-(trifluoromethyl)-1H-pyrazol-4-yl)isoxazole-4-carboxylate]	6.00 to 7.00
CNC(=S)c1c(-c2c(F)cccc2Cl)noc1-c1cnn(-c2cccc(Cl)c2)c1C(F)(F)F [Example 72, 3-(2-chloro-6-fluorophenyl)-5-(1-(3-chlorophenyl)-5-(trifluoromethyl)-1H-pyrazol-4-yl)-N-methylisoxazole-4-carbothioamide]	6.00 to 7.00
CCOC(=O)c1c(-c2ccncc2F)noc1-c1cnn(-c2ccncc2)c1C(F)(F)F [Example B-3, ethyl 3-(3-fluoropyridin-4-yl)-5-(1-(pyridin-4-yl)-5-(trifluoromethyl)-1H-pyrazol-4-yl)isoxazole-4-carboxylate]	6.00 to 7.00
CC(=O)Nc1cccc(-n2ncc(-c3onc(-c4c(F)cccc4Cl)c3C(=O)OC(C)C)c2C(F)(F)F)c1 [Example B-78, isopropyl 5-(1-(3-acetamidophenyl)-5-(trifluoromethyl)-1H-pyrazol-4-yl)-3-(2-chloro-6-fluorophenyl)isoxazole-4-carboxylate]	6.00 to 7.00
COC(=O)c1c(-c2c(F)cccc2Cl)noc1-c1cnn(-c2cccc(N)c2)c1C(F)(F)F [Example B-92, methyl 5-(1-(3-aminophenyl)-5-trifluoromethyl)-1H-pyrazol-4-yl)-3-(2-chloro-6-fluorophenyl)isoxazole-4-carboxylate]	7.00 to 8.00
COC(=O)c1c(-c2ccc(Cl)cc2Cl)noc1-c1cnn(-c2cccc(Cl)c2)c1C(F)(F)F [Example B-76, methyl 5-(1-(3-chlorophenyl)-5-(trifluoromethyl)-1H-pyrazol-4-yl)-3-(2,4-dichlorophenyl)isoxazole-4-carboxylate]	6.00 to 7.00
CCOC(=O)c1c(-c2ccncc2F)noc1-c1cnn(-c2ccccc2Cl)c1C(F)(F)F [Example B-13, ethyl 5-(1-(2-chlorophenyl)-5-(trifluoromethyl)-1H-pyrazol-4-yl)-3-(3-fluoropyridin-4-yl)isoxazole-4-carboxylate]	7.00 to 8.00
COC(=O)c1c(-c2c(F)cccc2Cl)noc1-c1cnn(-c2cccc(C(F)(F)F)c2)c1C(F)(F)F [Example 82, methyl 3-(2-chloro-6-fluorophenyl)-5-(5-(trifluoromethyl)-1-(3-(trifluoromethyl)phenyl)-1H-pyrazol-4-yl)isoxazole-4-carboxylate]	5.00 to 6.00
O=C(c1c(-c2c(F)cccc2Cl)noc1-c1cnn(-c2cccnc2)c1C(F)(F)F)N1CCCO1 [Example B-54, (3-(2-chloro-6-fluorophenyl)-5-(1-(pyridin-3-yl)-5-(trifluoromethyl)-1H-pyrazol-4-yl)isoxazol-4-yl)(isoxazolidin-2-yl)methanone]	5.00 to 6.00
CNC(=O)c1c(-c2c(F)cccc2Cl)noc1-c1cnn(-c2ccccc2)c1C(F)(F)F [Example 59, 3-(2-chloro-6-fluorophenyl)-N-methyl-5-(1-phenyl-5-(trifluoromethyl)-1H-pyrazol-4-yl)isoxazole-4-carboxamide]	6.00 to 7.00
CON(C)C(=O)c1c(-c2ccccc2Cl)noc1-c1cnn(-c2cccc(Cl)c2)c1C(F)(F)F [Example B-64, 3-(2-chlorophenyl)-5-(1-(3-chlorophenyl)-5-(trifluoromethyl)-1H-pyrazol-4-yl)-N-methoxy-N-methylisoxazole-4-carboxamide]	6.00 to 7.00
O=C(c1c(-c2c(F)cccc2Cl)noc1-c1cnn(-c2cccc(Cl)c2)c1C(F)(F)F)N1CCCO1 [Example 132, (3-(2-chloro-6-fluorophenyl)-5-(1-(3-chlorophenyl)-5-(trifluoromethyl)-1H-pyrazol-4-yl)isoxazol-4-yl)(isoxazolidin-2-yl)methanone]	7.00 to 8.00
CCOC(=O)c1c(-c2onc(-c3c(F)cccc3Cl)c2C(=O)OC)cnn1-c1cc(F)cc(F)c1 [Example 39, methyl 3-(2-chloro-6-fluorophenyl)-5-(1-(3,5-difluorophenyl)-5-(ethoxycarbonyl)-1-H-pyrazol-4-yl)isoxazole-4-carboxylate]	5.00 to 6.00
O=C(O)c1c(-c2ccccc2Cl)noc1-c1cnn(-c2cccc(Cl)c2)c1C(F)(F)F [Example B-42, 3-(2-chlorophenyl)-5-(1-(3-chlorophenyl)-5-(trifluoromethyl)-1H-pyrazol-4-yl)-isoxazole-4-carboxylic acid]	5.00 to 6.00
CCOC(=O)c1c(-c2c(F)cccc2Cl)noc1-c1cnn(CC2CCCO2)c1C(F)(F)F (stereo not shown) [Example B-96, ethyl 3-(2-chloro-6-fluorophenyl)-5-(1-((tetrahydrofuran-2-yl)methyl)-5-(trifluoromethyl)-1H-pyrazol-4-yl)isoxazole-4-carboxylate]	7.00 to 8.00
O=C(O)c1c(-c2ccccc2F)noc1-c1cnn(-c2cccc(F)c2)c1C(F)(F)F [Example 91, 3-(2-fluorophenyl)-5-(1-(3-fluorophenyl)-5-(trifluoromethyl)-1H-pyrazol-4-yl)isoxazole-4-carboxylic acid]	5.00 to 6.00
CCOC(=O)c1c(-c2c(F)cccc2Cl)noc1-c1cnn(-c2cccnc2)c1C(F)(F)F [Example B-37, ethyl 3-(2-chloro-6-fluorophenyl)-5-(1-(pyridin-3-yl)-5-(trifluoromethyl)-1H-pyrazol-4-yl)-isoxazole-4-carboxylate]	> 8.00
CC(C)OC(=O)c1c(-c2c(F)cccc2Cl)noc1-c1cnn(-c2ccccc2F)c1C(F)(F)F [Example 43, i-Propyl 3-(2-chloro-6-fluorophenyl)-5-[1-(2-fluorophenyl)-5-(trifluoromethyl)-1H-pyrazol-4-yl]isoxazole-4-carboxylate]	7.00 to 8.00
COC(=O)c1c(-c2c(F)cccc2Cl)noc1-c1cnn(-c2cccc(Cl)c2Cl)c1C(F)(F)F [Example 4, methyl 3-(2-chloro-6-fluorophenyl)-5-(1-(2,3-dichlorophenyl)-5-(trifluoromethyl)-1H-pyrazol-4-yl)isoxazole-4-carboxylate]	5.00 to 6.00
O=C(c1c(-c2c(F)cccc2Cl)noc1-c1cnn(-c2ccccc2F)c1C(F)(F)F)N1CCCCC1 [Example 21, (3-(2-chloro-6-fluorophenyl)-5-(1-(2-fluorophenyl)-5-(trifluoromethyl)-1H-pyrazol-4-yl)isoxazol-4-yl)(piperidin-1-yl)methanone]	7.00 to 8.00
